Test results published in article PMC8115384 (Cell, 2021).
Changes are numbered by the printed parent chain. Where two headings read alike, the source gives them in different places.

What was measured:
[1] = biological target: T1, F175Y/Y177F variant (YGF) of zebrafish α1 GlyR (Danio rerio, UniProt O93430, F183Y/Y185F); experiment: Cell-attached single-channel recording, cluster open probability, YGF mutant; type: cell-based; conditions: HEK293A cells, single-channel clusters, 100 mM GABA
T1 sequence (O93430 25-444 F183Y/Y185F): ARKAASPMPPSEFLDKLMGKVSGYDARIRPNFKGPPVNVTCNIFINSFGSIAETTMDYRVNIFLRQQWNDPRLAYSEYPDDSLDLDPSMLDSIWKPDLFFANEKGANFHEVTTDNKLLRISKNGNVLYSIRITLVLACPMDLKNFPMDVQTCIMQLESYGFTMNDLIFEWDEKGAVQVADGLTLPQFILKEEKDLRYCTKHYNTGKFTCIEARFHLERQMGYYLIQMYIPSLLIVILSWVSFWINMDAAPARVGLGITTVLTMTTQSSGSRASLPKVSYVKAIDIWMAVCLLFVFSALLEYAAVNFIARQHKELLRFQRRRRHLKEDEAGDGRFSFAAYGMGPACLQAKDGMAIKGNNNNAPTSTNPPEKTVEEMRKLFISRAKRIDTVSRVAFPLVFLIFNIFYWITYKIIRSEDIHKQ

[2] = biological target: T2, Full-length zebrafish α1 GlyR (Danio rerio, UniProt O93430); experiment: Whole cell dose-response, FL GlyR; type: cell-based
T2 sequence (O93430 25-444): T1 sequence (O93430 25-444 F183Y/Y185F) with Y159F, F161Y

[3] = biological target: T3, FL receptor (full-length zebrafish α1 glycine receptor) (Danio rerio, UniProt O93430); experiment: Ligand binding with 3H-strychnine by SPA, FL receptor in SMA
T3 sequence (O93430 25-444): T1 sequence (O93430 25-444 F183Y/Y185F) with Y159F, F161Y

[4] = biological target: T4, YGF mutant of zebrafish α1 glycine receptor (Danio rerio, UniProt O93430, F183Y/Y185F); experiment: Ligand binding with 3H-strychnine by SPA, YGF mutant in SMA
T4 sequence (O93430 25-444 F183Y/Y185F): T1 sequence (O93430 25-444 F183Y/Y185F)

[5] = biological target: T5, YYY mutant (F115Y/F175Y/F223Y) of GlyR (Danio rerio, UniProt O93430, F123Y/F183Y/F231Y); experiment: Single-channel open probability, YYY mutant; type: cell-based, zebrafish; conditions: 100 mM GABA; similar Po in the YYY mutant as in the FL receptor
T5 sequence (O93430 25-444 F123Y/F183Y/F231Y): T1 sequence (O93430 25-444 F183Y/Y185F) with F99Y, F161Y, F207Y

[6] = biological target: T1, F175Y/Y177F variant (YGF) of zebrafish α1 GlyR; experiment: Whole cell dose-response, YGF mutant; type: cell-based; conditions: HEK293A, ± SEM, n≥6 cells
[7] = test system: GlyR Ser294 to cysteine mutant; conditions: S294C vs wild type; ref Lynch et al., 2001; cited from earlier work
[8] = biological target: T2, Full-length zebrafish α1 GlyR; experiment: Macroscopic currents in outside-out patches, fast agonist application

NCCCC(=O)O [GABA, γ-amino butyric acid]
Po [1]: 92 ± 2% | EC50 [2]: 28400 ± 900 µM | Ki [3]: 1410 ± 940 µM | Ki [4]: 180 ± 70 µM | agonist efficacy (Po) in YYY mutant compared with FL receptor [5]: remained a weak partial agonist

NCC(=O)O [glycine]
EC50 ([2]; FL GlyR, whole cell, HEK293A, -40 mV, ± SEM, n≥6 cells): 190 ± 20 µM | EC50 [6]: 33 ± 3 µM | increase of glycine EC50 by mutation of Ser294 to cysteine [7]: ~ 5 fold | current left at the end of the 1-s pulse, range over patches ([8]; 10 mM glycine, 8 patches): 17–89% | current left at the end of the 1-s pulse, patch shown ([8]; 10 mM glycine, single outside-out patch of Figure S1A): 17% | current left, % of peak, after 1 s application (desensitization), average ([8]; saturating (10 mM) glycine, outside-out patches, n=8 patches): 57 ± 8%

NCCS(=O)(=O)O [taurine]
Po [1]: 95 ± 5% | EC50 [2]: 1050 ± 80 µM
